In one test the test system is marginal zone B cells. The test can be described thus: Marginal zone B cells in mouse spleen (FACS). Format: in vivo. The settings on record: 60 mg/kg, spleens harvested 2 hrs after the last dose, FIG. 9.
Another test deals with PC3 cells. Put plainly: Proliferation of tumor cells (CellTiter-Glo). It counts as cell-based, human. The settings on record: read-out: cell proliferation IC50. As for the experimental part: Cells comprising one or more mutations in PI3Kα, including but not limited to breast cancer cells (e.g., MDA-MB-361, T47D, SKOV-3), and cells comprising one or more mutations in PTEN including but not limited to prostate cancer cells (e.g., PC3), are typically grown in cell growth media such as DMEM supplemented with fetal bovine serum and/or antibiotics, and grown to confluency. Cells are then treated with various concentrations of test compound for about 2 hours and subsequently lysed in cell lysis buffer. Lysates are subjected to SDS-PAGE followed by Western blot analysis to detect downstream signaling markers, including but not limited to pAKT(S473), pAKT(T308), pS6, and p4E-BP1.
Cells were seeded at 5000-10,000 per well in a 96 well flat bottom plate 90 ul growth media. Pre-diluted compound (at 10 times the final concentration) or DMSO (control) was added. The compounds were prepared such that the dose range extended from a final concentration of 30 μM to 14 nM via 3-fold serial dilutions (8 point curve). The final DMSO concentration was 0.3%. Cells were incubated for 72 hours at 37° C. in a CO2 incubator. After 72 hours, proliferation was measured using CellTiter-Glo Luminescent reagent (Promega, PR-G7573). […] Luminescence was read on a PerkinElmer EnVision plate reader. […] Inhibition % was calculated as: 1−(cells+inhibitor)−background signal)/(cells+DMSO)−background signal)×100.

Procedure for marginal zone B cells: The effect of the compounds on the localization/viability of marginal zone B cells in the spleen is also evaluated at the conclusion of treatment.
Spleens were harvested 2 hrs after the last dose, processed and stained with appropriate antibodies (marginal zone B cell: B220+;CD23−;CD21hi) and analyzed for staining on GUAVA EasyCyte FACS machine using Guava Cytosoft 5.2 software.

As to `Nc1nc2cc(-c3ccc4ncc(C(=O)N5CCOCC5)n4c3)ccc2o1` [Compound A], the “localization/viability of marginal zone B cells” value in the test on marginal zone B cells is “does not affect”. Also, the IC50 in the test on PC3 cells is greater than 10 µM.

For the origin of these results see patent publication US20150087627A1, “COMBINATION OF KINASE INHIBITORS AND USES THEREOF” (Intellikine LLC, priority 2011, published 2015).
